Measured values as given in patent US7176228B2, “Pyrazole biphenylcarboxamides” (Bayer Cropscience AG, priority 2000, dated 2007).

experiment: logP determination by HPLC on a reversed-phase column (EEC Directive 79/831 Annex V.A8); assay type: physicochemical; conditions: reversed-phase C18 HPLC column, reversed-phase column (C 18), 43° C., acidic range (a): 0.1% aqueous phosphoric acid, acetonitrile gradient 10% to 90%
Procedure: [table] Calibration was carried out using unbranched alkan-2-ones (having 3 to 16 carbon atoms) with known logP values (determination of the logP values by the retention times using linear interpolation between two successive alkanones).

Row | SMILES | chromatographic logP
1 | CO/N=C/c1ccc(-c2ccccc2NC(=O)c2cn(C)nc2C(F)(F)F)cc1F [Example 112] | 3.21
2 | CO/N=C/c1ccc(-c2ccccc2NC(=O)c2cccnc2O)cc1 [Example 113] | 2.43
3 | CO/N=C/c1ccc(-c2ccccc2NC(=O)c2ccco2)cc1 [Example 54] | 3.2
4 | CCCCO/N=C/c1ccc(-c2ccccc2NC(=O)c2cn(C)nc2C(F)(F)F)cc1 [Example 22] | 4.26
5 | CO/N=C/c1cccc(-c2ccccc2NC(=O)c2sccc2Br)c1 [Example 57] | 4.39
6 | CO/N=C/c1ccc(-c2ccccc2NC(=O)c2c(C3CC3)nn(C)c2Cl)cc1 [Example 97] | 3.76
7 | CO/N=C/c1cccc(-c2ccccc2NC(=O)c2nc(C)oc2C(F)(F)F)c1 [Example 70] | 4.45
8 | CO/N=C\c1cc(-c2ccccc2NC(=O)c2cn(C)nc2C(F)(F)F)ccc1/C=N/OC [Example 50] | 3.36
9 | CCc1nn(C)c(Cl)c1C(=O)Nc1ccccc1-c1cccc(/C=N/OC)c1 [Example 96] | 3.72
10 | CCCCO/N=C(/C)c1ccc(-c2ccccc2NC(=O)c2sc(C)nc2C(F)(F)F)cc1 [Example 77] | 4.77
11 | CO/N=C/c1ccc(-c2ccccc2NC(=O)c2sccc2Br)cc1 [Example 56] | 4.39
12 | CO/N=C/c1cccc(-c2ccccc2NC(=O)c2cn(C)nc2C(F)(F)F)c1 [Example 52] | 3.25
13 | CO/N=C/c1ccc(-c2ccccc2NC(=O)c2ccsc2C)cc1 [Example 110] | 3.58
14 | CO/N=C/c1ccc(-c2ccccc2NC(=O)c2ccc(Br)o2)cc1 [Example 71] | 3.78
15 | CO/N=C/c1cccc(-c2ccccc2NC(=O)c2sc(Cl)nc2C)c1 [Example 68] | 3.75
16 | Cc1nc(C(F)(F)F)c(C(=O)Nc2ccccc2-c2ccc(/C=N\O)cc2)s1 [Example 30] | 2.78
17 | CO/N=C/c1ccc(-c2ccccc2NC(=O)c2cn(C)cc2C(C)C)cc1 [Example 66] | 3.82
18 | CO/N=C/c1cccc(-c2ccccc2NC(=O)c2cc(C)oc2C(F)(F)F)c1 [Example 65] | 3.97
19 | CO/N=C/c1ccc(-c2ccccc2NC(=O)c2sccc2C)cc1 [Example 47] | 3.86
20 | CO/N=C/c1ccc(-c2ccccc2NC(=O)c2sc(C)nc2C(F)(F)F)cc1Cl [Example 74] | 3.95
21 | CCCO/N=C/c1ccc(-c2ccccc2NC(=O)c2c(C)nn(C)c2Cl)cc1 [Example 118] | 4.22
22 | CCCO/N=C/c1ccc(-c2ccccc2NC(=O)c2sc(C)nc2C(F)(F)F)cc1 [Example 23] | 4.26
23 | CO/N=C/c1cccc(-c2ccccc2NC(=O)c2ccc([N+](=O)[O-])o2)c1 [Example 102] | 3.26
24 | CO/N=C/c1cccc(-c2ccccc2NC(=O)c2c(C3CC3)nn(C)c2Cl)c1 [Example 98] | 3.81
25 | CCCO/N=C/c1ccc(-c2ccccc2NC(=O)c2cn(C)nc2C(F)(F)F)cc1 [Example 28] | 3.86
26 | CO/N=C/c1ccc(-c2ccccc2NC(=O)c2cn(C)nc2C(F)F)cc1F [Example 114] | 3
27 | CO/N=C/c1ccc(-c2ccccc2NC(=O)c2ccccc2I)cc1 [Example 45] | 3.73

Second part, the molecule after the results:

Row | chromatographic logP | SMILES
28 | 3.19 | Cn1cc(C(=O)Nc2ccccc2-c2ccc(/C=N\O)cc2)c(C(F)(F)F)n1 [Example 41]
29 | 3.37 | CO/N=C/c1cccc(-c2ccccc2NC(=O)c2c(C)nn(C)c2Cl)c1 [Example 58]
30 | 3.59 | CO/N=C/c1ccc(-c2ccccc2NC(=O)c2ccccc2Cl)cc1 [Example 38]
31 | 3.84 | CO/N=C/c1cccc(-c2ccccc2NC(=O)c2sccc2C)c1 [Example 48]
32 | 3.1 | CO/N=C/c1ccc(-c2ccccc2NC(=O)c2ccsc2)cc1 [Example 108]
33 | 3.64 | CO/N=C/c1cccc(-c2ccccc2NC(=O)C2=C(C)OCCS2)c1 [Example 59]
34 | 3.8 | CO/N=C/c1cccc(-c2ccccc2NC(=O)c2ccc(Br)o2)c1 [Example 72]
35 | 3.94 | CO/N=C/c1ccc(-c2ccccc2NC(=O)c2cc(C)oc2C(F)(F)F)cc1 [Example 64]
36 | 3.59 | CO/N=C/c1cccc(-c2ccccc2NC(=O)c2ccsc2C)c1 [Example 111]
37 | 4.65 | CCCCO/N=C\c1ccc(-c2ccccc2NC(=O)c2sc(C)nc2C(F)(F)F)cc1 [Example 3]
38 | 3.68 | CCc1nn(C)c(Cl)c1C(=O)Nc1ccccc1-c1ccc(/C=N/OC)cc1 [Example 95]
39 | 3.87 | CCn1nc(C)c(C(=O)Nc2ccccc2-c2ccc(/C=N/OC)cc2)c1Cl [Example 103]
40 | 3.75 | CO/N=C/c1ccc(-c2ccccc2NC(=O)C2=C(C)OCCS2)cc1 [Example 53]
41 | 4.73 | CO/N=C/c1ccc(-c2ccccc2NC(=O)c2ccc(OC)nc2OC)cc1 [Example 34]
42 | 4.23 | Cc1nc(C(F)(F)F)c(C(=O)Nc2ccccc2-c2ccc(/C=N\OC(C)C)cc2)s1 [Example 5]
43 | 4.72 | CO/N=C/c1cccc(-c2ccccc2NC(=O)c2cc(Cl)sc2Cl)c1 [Example 100]
44 | 4 | CO/N=C/c1cccc(-c2ccccc2NC(=O)c2sc(N(C)C)nc2C(F)(F)F)c1 [Example 73]
45 | 5.1 | CO/N=C\c1ccc(-c2ccccc2NC(=O)c2cn(C)cc2C)cc1 [Example 19]
46 | 3.99 | CO/N=C/c1ccc(-c2ccccc2NC(=O)c2ccc(C(F)(F)F)o2)cc1 [Example 62]
47 | 3.26 | CO/N=C/c1ccc(-c2ccccc2NC(=O)c2ccc([N+](=O)[O-])o2)cc1 [Example 101]
48 | 3.24 | CO/N=C\c1ccc(-c2ccccc2NC(=O)c2c(C)nn(C)c2Cl)cc1 [Example 17]

Row | chromatographic logP | SMILES
49 | 2.04 | CO/N=C/c1ccc(-c2ccccc2NC(=O)c2cccnc2C)cc1 [Example 35]
50 | 4.02 | CO/N=C/c1cccc(-c2ccccc2NC(=O)c2ccc(C(F)(F)F)o2)c1 [Example 63]
51 | 3.42 | CO/N=C/c1cccc(-c2ccccc2NC(=O)c2sc(C)nc2C(F)(F)F)c1 [Example 2]
52 | 3.73 | CO/N=C/c1cccc(-c2ccccc2NC(=O)c2ccccc2I)c1 [Example 46]
53 | 4.08 | CO/N=C/c1ccc(-c2ccccc2NC(=O)c2sc(Cl)nc2C(F)(F)F)cc1 [Example 37]
54 | 3.75 | CO/N=C/c1ccc(-c2ccccc2NC(=O)c2sc(Cl)nc2C)cc1 [Example 67]
55 | 3.2 | CO/N=C/c1cccc(-c2ccccc2NC(=O)c2ccco2)c1 [Example 55]
56 | 3.47 | CO/N=C/c1cccc(-c2ccccc2NC(=O)c2ccoc2C)c1 [Example 43]
57 | 3.47 | CO/N=C/c1ccc(-c2ccccc2NC(=O)c2ccoc2C)cc1 [Example 42]
58 | 3.84 | CO/N=C/c1ccc(-c2ccccc2NC(=O)c2sc(N(C)C)nc2C(F)(F)F)cc1 [Example 32]
59 | 4.67 | CO/N=C/c1ccc(-c2ccccc2NC(=O)c2cc(Cl)sc2Cl)cc1 [Example 99]
60 | 4.12 | CO/N=C/c1ccc(-c2ccccc2NC(=O)c2cccnc2OC)cc1 [Example 33]
61 | 3.56 | CO/N=C/c1ccc(-c2ccccc2NC(=O)c2ccccc2C)cc1 [Example 40]
62 | 3.54 | CO/N=C/c1ccc(-c2ccccc2NC(=O)c2cn(C)nc2C(F)(F)F)cc1Cl [Example 49]
63 | 3.26 | CO/N=C/c1ccc(-c2ccccc2NC(=O)c2sc(C)nc2C(F)F)cc1 [Example 60]
64 | 3.78 | CO/N=C/c1ccc(-c2c(C)cccc2NC(=O)c2sc(C)nc2C(F)(F)F)cc1 [Example 51]
65 | 3.75 | CO/N=C/c1ccc(-c2ccccc2NC(=O)c2ccccc2C(F)(F)F)cc1 [Example 36]
66 | 3.61 | CO/N=C/c1ccc(-c2ccccc2NC(=O)c2ccccc2Br)cc1 [Example 39]
67 | 3.26 | CO/N=C/c1cccc(-c2ccccc2NC(=O)c2sc(C)nc2C(F)F)c1 [Example 61]
68 | 3.76 | CO/N=C/c1cccc(-c2ccccc2NC(=O)c2ccccc2C(F)(F)F)c1 [Example 44]
